In patent publication US8507690B2, “Thiazole derivative and use thereof as VAP-1 inhibitor” (R-Tech Ueno, Ltd., priority 2008, dated 2013):

Legend:
[1] = target: T1, human VAP-1 enzyme (SSAO) (Homo sapiens, UniProt Q16853); assay: Enzyme activity inhibitory effect on human VAP-1 enzyme (SSAO), radiochemical-enzyme assay with 14C-benzylamine; format: biochemical; details: human VAP-1 (SSAO) cell extract, 14C-benzylamine 1×10^−5 mol/l, 37° C. 2 hours
T1 construct: made in house; cell extract used
T1 sequence (Q16853 1-763): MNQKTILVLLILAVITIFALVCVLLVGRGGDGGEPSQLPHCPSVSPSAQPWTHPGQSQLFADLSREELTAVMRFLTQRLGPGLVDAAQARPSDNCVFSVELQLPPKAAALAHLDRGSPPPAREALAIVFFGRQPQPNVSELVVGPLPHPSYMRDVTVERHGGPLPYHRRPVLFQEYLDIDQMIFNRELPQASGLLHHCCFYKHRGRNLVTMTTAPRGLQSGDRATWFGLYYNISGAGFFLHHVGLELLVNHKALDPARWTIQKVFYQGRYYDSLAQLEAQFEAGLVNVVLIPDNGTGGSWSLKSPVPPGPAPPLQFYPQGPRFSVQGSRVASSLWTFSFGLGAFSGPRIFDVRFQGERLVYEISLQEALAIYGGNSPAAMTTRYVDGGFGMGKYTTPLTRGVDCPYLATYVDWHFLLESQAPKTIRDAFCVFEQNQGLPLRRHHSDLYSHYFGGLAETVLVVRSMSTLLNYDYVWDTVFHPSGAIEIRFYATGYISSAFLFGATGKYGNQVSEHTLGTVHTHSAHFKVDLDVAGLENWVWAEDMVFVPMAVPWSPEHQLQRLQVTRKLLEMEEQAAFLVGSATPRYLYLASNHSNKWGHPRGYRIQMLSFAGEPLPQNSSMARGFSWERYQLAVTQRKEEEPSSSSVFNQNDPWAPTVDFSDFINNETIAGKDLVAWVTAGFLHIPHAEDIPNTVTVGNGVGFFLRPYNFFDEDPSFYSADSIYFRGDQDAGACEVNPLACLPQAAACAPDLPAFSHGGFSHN
Description: (§1) The compounds of the present invention obtained in Production Examples were examined for the enzyme activity inhibitory effect on human and rat VAP-1 enzyme (SSAO) by the following method.
(§2) The VAP-1 enzyme (SSAO) activity in both human and rat was measured by a radiochemical-enzyme assay using ^14C-benzylamine as an artificial substrate. Human or rat VAP-1 was cloned from the cDNA library and expressed in a cell. The cell extract was preincubated with a test compound solution (final concentration 1×10^−7-1×10^−11 mol/l) at room temperature for 20 minutes. Then, ^14C-benzylamine (final concentration 1×10^−5 mol/l) was added, and the mixture was incubated at a final volume of 200 μl at 37° C. for 2 hours. The enzyme reaction was stopped by addition of 2 mol/l (200 μl) citric acid. The oxidation product was extracted with 1 ml toluene/ethyl acetate (1:1), and the radioactivity thereof was measured by a liquid scintillation counter.

rat VAP-1 enzyme (SSAO) = target: T2, rat VAP-1 enzyme (SSAO) (Rattus norvegicus, UniProt O08590); assay: Enzyme activity inhibitory effect on rat VAP-1 enzyme (SSAO), radiochemical-enzyme assay with 14C-benzylamine; format: biochemical; details: rat VAP-1 (SSAO) cell extract, 14C-benzylamine 1×10^−5 mol/l, 37° C. 2 hours
T2 construct: made in house; cell extract used
T2 sequence (O08590 1-763): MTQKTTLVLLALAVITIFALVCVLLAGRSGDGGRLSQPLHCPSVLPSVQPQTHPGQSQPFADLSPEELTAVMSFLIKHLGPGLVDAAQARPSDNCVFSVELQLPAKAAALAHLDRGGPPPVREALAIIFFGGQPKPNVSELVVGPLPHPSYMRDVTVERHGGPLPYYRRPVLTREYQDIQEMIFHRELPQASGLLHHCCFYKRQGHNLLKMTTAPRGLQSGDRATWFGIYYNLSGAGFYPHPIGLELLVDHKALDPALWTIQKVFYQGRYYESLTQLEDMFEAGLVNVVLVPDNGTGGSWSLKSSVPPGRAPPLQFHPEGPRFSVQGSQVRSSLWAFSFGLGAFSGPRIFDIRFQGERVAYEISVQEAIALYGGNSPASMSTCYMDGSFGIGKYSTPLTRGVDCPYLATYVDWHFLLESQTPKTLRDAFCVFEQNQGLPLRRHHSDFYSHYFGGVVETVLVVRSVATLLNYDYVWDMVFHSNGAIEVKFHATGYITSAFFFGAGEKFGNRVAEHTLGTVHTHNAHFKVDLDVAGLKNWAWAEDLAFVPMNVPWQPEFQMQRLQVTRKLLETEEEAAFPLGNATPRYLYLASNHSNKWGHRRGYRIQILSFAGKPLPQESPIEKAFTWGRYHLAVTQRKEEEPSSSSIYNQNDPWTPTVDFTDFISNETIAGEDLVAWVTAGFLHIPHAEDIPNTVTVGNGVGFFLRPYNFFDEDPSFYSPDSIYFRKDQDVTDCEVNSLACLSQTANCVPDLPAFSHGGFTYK
Description: as §1, §2

| SMILES | IC50 [1] [nM] | IC50 (rat VAP-1 enzyme (SSAO)) [nM] | melting point [°C] |
| --- | --- | --- | --- |
| CC(=O)Nc1nc(CCc2ccc(COC(=O)NN)cc2F)cs1.Cl [Production Example 5, 4-{2-[2-(acetylamino)-1,3-thiazol-4-yl]ethyl}-3-fluorobenzyl hydrazinecarboxylate hydrochloride] | 1.2 | 1.1 | 204 to 208 |
| CC(=O)Nc1nc(CCc2ccc(OC(=O)NN)cc2)cs1.Cl [Production Example 1, 4-{2-[2-(acetylamino)-1,3-thiazol-4-yl]ethyl}phenyl hydrazinecarboxylate hydrochloride] | 2.5 | 0.2 | 167 to 169 |
| CC(=O)Nc1nc(COc2ccc(CCOC(=O)NN)cc2)cs1 [Production Example 7, 2-(4-{[2-(acetylamino)-1,3-thiazol-4-yl]methoxy}phenyl)ethyl hydrazinecarboxylate] | 57 | 7.1 | 177 to 180 |
| CC(=O)Nc1nc(CCc2cccc(CNC(=O)NN)c2)cs1.Cl [Production Example 27, N-(3-{2-[2-(acetylamino)-1,3-thiazol-4-yl]ethyl}benzyl)hydrazinecarboxamide hydrochloride] | 2.1 | 0.6 | 123 to 127 |
| CC(=O)Nc1nc(CCc2cccc(CCOC(=O)NN)c2)cs1.Cl [Production Example 12, 2-(3-{2-[2-(acetylamino)-1,3-thiazol-4-yl]ethyl}phenyl)ethyl hydrazinecarboxylate hydrochloride] | 3.2 | 0.5 | 138 to 140 |
| CC(=O)Nc1nc(CCc2cccc(COC(=O)NN)c2)cs1.Cl [Production Example 11, 3-{2-[2-(acetylamino)-1,3-thiazol-4-yl]ethyl}benzyl hydrazinecarboxylate hydrochloride] | 1.3 | 0.2 | 113 to 119 |
| CC(=O)Nc1nc(CCc2ccc(CNC(=O)NN)cc2)cs1.Cl [Production Example 18, N-(4-{2-[2-(acetylamino)-1,3-thiazol-4-yl]ethyl}benzyl)hydrazinecarboxamide hydrochloride] | 4 | 1.3 | 167 to 169 |
| CC(=O)Nc1nc(CCc2cc(C)c(CCCOC(=O)NN)s2)cs1.Cl [Production Example 17, 3-(5-{2-[2-(acetylamino)-1,3-thiazol-4-yl]ethyl}-3-methylthiophen-2-yl)propyl hydrazinecarboxylate hydrochloride] | 68.7 | 5 | 111 to 115 |
| CC(=O)Nc1nc(CCc2ccc(CCNC(=O)NN)cc2)cs1.Cl [Production Example 19, N-[2-(4-{2-[2-(acetylamino)-1,3-thiazol-4-yl]ethyl}phenyl)ethyl]hydrazinecarboxamide hydrochloride] | 12.2 | 2.3 | 171 to 173 |
| CC(=O)Nc1nc(CCc2ccc(CCOC(=O)NN)cc2)cs1.Cl [Production Example 3, 2-(4-{2-[2-(acetylamino)-1,3-thiazol-4-yl]ethyl}phenyl)ethyl hydrazinecarboxylate hydrochloride] | 11.7 | 2.3 | 172 to 174 |
| CC(=O)Nc1nc(CCc2cccc(CCNC(=O)NN)c2)cs1.Cl [Production Example 28, N-[2-(3-{2-[2-(acetylamino)-1,3-thiazol-4-yl]ethyl}phenyl)ethyl]hydrazinecarboxamide hydrochloride] | 44.3 | 5.6 | 176 to 179 |
| CC(=O)Nc1nc(CCc2cc(CCCOC(=O)NN)cs2)cs1.Cl [Production Example 16, 3-(5-{2-[2-(acetylamino)-1,3-thiazol-4-yl]ethyl}thiophen-3-yl)propyl hydrazinecarboxylate hydrochloride] | 16.7 | 10.5 | 98 to 102 |
| CC(=O)Nc1nc(C(=O)Nc2ccc(CCOC(=O)NN)cc2)cs1.Cl [Production Example 9, 2-[4-({[2-(acetylamino)-1,3-thiazol-4-yl]carbonyl}amino)phenyl]ethyl hydrazinecarboxylate hydrochloride] | 17.1 | 1 | 225 to 233 |
